Assay results as given in ChEMBL document CHEMBL5370531, “Design, synthesis and pharmacological evaluation of 2,3-dihydrobenzofuran IRAK4 inhibitors for the treatment of diffuse large B-cell lymphoma” (Eur J Med Chem, 2023).
The source made the active and inactive calls. No cut-off for these calls is given here.

Experiments:
[1] = system: OCI-Ly10; assay: Synergistic antiproliferative activity against human OCILY10 cells harboring MYD88 L265P assessed as inhibition of cell growth at 100 nM incubated for 72 hrs in presence of BTK inhibitor, ibrutinib at 3.1 nM by CCK-8 assay (reference value: 21.36 %); type: functional
[2] = system: U2932; assay: Cytotoxicity against human U2932 cells assessed as inhibition of cell proliferation incubated for 72 hrs by CCK-8 assay; type: functional, cell-based; settings: U2932, 72 h
[3] = target: Vascular endothelial growth factor receptor 2 (Homo sapiens) (UniProt P35968); assay: Inhibition of VEGFR2 (unknown origin) at 100 nM incubated for 1 hr in presence of ATP by ELISA analysis
[4] = target: Platelet-derived growth factor receptor alpha (Homo sapiens) (UniProt P16234); assay: Inhibition of PDGFR-alpha (unknown origin) at 100 nM incubated for 1 hr in presence of ATP by ELISA analysis
Chain of Platelet-derived growth factor receptor alpha (Homo sapiens) (P16234 whole entry): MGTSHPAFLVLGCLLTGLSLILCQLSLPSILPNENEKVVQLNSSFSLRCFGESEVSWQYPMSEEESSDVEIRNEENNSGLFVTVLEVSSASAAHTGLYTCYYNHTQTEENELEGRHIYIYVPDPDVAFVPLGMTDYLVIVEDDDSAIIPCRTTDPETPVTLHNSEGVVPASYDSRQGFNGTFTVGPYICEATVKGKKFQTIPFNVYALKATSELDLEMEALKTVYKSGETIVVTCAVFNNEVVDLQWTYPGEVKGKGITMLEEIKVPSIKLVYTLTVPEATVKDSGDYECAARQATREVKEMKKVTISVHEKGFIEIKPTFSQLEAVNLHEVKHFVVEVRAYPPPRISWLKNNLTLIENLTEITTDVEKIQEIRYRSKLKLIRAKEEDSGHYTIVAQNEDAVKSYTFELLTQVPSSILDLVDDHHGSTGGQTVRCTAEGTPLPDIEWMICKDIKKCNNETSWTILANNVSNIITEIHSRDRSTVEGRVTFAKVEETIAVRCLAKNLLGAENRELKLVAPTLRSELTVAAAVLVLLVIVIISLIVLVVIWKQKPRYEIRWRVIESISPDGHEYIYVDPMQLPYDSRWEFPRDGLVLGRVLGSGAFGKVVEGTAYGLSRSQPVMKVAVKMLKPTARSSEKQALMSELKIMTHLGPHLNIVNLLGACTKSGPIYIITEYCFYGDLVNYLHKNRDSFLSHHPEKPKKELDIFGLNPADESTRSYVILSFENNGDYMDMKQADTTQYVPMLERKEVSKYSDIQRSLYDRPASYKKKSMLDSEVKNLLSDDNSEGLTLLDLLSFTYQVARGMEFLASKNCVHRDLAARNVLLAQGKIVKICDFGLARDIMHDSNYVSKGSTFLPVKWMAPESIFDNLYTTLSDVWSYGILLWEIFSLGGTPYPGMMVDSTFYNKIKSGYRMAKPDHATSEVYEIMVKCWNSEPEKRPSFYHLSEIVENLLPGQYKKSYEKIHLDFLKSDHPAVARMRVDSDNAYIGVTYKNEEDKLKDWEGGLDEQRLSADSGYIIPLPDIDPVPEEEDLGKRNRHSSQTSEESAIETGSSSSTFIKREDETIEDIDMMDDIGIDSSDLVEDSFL

[5] = target: Fibroblast growth factor receptor 3 (Homo sapiens) (UniProt P22607); assay: Inhibition of FGFR3 (unknown origin) at 100 nM incubated for 1 hr in presence of ATP by ELISA analysis
[6] = target: Tyrosine-protein kinase ITK/TSK (Homo sapiens) (UniProt Q08881); assay: Inhibition of ITK (unknown origin) at 100 nM incubated for 1 hr in presence of ATP by ELISA analysis
Chain of Tyrosine-protein kinase ITK/TSK (Homo sapiens) (Q08881 whole entry): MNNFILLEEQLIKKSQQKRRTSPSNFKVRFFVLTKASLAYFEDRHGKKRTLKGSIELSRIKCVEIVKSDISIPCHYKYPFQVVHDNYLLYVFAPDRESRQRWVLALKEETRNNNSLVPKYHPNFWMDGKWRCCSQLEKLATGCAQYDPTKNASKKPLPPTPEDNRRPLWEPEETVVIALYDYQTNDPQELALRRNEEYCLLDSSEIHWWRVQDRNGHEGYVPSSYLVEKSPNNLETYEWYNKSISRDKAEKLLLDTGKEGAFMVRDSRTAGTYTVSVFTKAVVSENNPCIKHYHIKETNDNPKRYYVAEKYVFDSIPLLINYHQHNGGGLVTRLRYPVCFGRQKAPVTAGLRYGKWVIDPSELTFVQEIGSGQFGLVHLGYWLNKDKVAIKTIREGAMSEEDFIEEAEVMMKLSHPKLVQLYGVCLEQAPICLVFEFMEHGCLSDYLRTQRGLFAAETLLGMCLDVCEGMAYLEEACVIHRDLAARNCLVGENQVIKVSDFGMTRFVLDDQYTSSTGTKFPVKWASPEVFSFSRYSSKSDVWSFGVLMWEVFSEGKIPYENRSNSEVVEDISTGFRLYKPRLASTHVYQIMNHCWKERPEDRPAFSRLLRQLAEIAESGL

[7] = target: Vascular endothelial growth factor receptor 1 (Homo sapiens) (UniProt P17948); assay: Inhibition of VEGFR1 (unknown origin) at 100 nM incubated for 1 hr in presence of ATP by ELISA analysis
[8] = target: Fibroblast growth factor receptor 1 (Homo sapiens) (UniProt P11362); assay: Inhibition of FGFR1 (unknown origin) at 100 nM incubated for 1 hr in presence of ATP by ELISA analysis
Chain of Fibroblast growth factor receptor 1 (Homo sapiens) (P11362 22-822 limits assumed): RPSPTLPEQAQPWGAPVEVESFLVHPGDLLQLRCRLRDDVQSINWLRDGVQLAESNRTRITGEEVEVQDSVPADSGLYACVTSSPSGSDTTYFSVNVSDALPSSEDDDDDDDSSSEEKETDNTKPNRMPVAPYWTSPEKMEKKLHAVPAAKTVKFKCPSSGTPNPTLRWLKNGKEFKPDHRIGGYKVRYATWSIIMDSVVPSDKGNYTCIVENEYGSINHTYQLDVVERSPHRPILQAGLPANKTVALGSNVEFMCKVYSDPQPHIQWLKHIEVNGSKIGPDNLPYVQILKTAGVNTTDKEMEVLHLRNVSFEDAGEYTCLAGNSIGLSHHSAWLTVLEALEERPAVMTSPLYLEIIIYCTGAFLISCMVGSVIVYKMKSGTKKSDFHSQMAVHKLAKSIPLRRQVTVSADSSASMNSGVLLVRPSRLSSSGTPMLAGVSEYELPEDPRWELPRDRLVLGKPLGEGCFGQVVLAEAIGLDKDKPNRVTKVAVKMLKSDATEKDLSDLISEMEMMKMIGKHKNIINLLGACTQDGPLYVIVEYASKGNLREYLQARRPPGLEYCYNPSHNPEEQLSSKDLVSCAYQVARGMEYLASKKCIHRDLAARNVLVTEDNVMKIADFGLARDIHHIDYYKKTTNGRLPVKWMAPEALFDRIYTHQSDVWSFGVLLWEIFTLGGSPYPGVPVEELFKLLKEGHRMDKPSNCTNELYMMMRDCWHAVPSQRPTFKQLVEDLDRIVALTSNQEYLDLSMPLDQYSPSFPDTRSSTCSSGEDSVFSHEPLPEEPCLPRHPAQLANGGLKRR

[9] = target: Receptor tyrosine-protein kinase erbB-4 (Homo sapiens) (UniProt Q15303); assay: Inhibition of ERBB4 (unknown origin) at 100 nM incubated for 1 hr in presence of ATP by ELISA analysis
Chain of Receptor tyrosine-protein kinase erbB-4 (Homo sapiens) (Q15303 whole entry): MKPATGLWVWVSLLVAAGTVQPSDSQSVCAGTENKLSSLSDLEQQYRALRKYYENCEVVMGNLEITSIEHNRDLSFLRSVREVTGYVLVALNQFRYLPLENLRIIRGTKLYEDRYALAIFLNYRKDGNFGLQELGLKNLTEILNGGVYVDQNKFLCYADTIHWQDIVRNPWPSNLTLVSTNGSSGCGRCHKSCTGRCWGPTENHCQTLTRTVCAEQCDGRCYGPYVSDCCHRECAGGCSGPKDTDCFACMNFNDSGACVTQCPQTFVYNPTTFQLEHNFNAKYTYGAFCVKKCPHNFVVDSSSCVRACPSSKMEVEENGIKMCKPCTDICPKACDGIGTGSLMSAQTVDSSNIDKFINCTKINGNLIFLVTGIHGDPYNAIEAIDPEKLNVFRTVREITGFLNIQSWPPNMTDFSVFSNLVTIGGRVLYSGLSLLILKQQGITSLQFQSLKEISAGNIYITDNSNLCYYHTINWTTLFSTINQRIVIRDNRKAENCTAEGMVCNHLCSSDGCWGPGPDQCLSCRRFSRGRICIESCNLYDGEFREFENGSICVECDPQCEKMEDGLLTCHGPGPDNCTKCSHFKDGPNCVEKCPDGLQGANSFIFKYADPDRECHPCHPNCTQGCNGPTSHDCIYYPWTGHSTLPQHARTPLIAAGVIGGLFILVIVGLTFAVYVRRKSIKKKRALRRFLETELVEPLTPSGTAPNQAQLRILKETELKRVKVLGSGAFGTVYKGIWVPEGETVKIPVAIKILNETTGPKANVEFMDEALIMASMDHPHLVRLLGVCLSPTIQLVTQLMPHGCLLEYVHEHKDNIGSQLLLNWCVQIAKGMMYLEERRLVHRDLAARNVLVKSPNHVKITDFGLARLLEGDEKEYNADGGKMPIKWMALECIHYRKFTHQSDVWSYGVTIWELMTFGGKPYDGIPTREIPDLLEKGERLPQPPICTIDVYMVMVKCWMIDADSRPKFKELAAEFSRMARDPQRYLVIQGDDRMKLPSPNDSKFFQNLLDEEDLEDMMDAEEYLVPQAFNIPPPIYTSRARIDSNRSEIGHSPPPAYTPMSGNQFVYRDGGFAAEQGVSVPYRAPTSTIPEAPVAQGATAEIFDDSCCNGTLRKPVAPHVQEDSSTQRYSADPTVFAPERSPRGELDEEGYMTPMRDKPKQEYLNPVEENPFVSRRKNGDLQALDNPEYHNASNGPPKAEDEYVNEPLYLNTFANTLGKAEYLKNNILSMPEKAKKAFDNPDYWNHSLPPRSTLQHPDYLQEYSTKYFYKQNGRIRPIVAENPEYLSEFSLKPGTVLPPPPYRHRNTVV

[10] = target: Proto-oncogene tyrosine-protein kinase Src (Homo sapiens) (UniProt P12931); assay: Inhibition of SRC (unknown origin) at 100 nM incubated for 1 hr in presence of ATP by ELISA analysis
Chain of Proto-oncogene tyrosine-protein kinase Src (Homo sapiens) (P12931 2-536 limits assumed): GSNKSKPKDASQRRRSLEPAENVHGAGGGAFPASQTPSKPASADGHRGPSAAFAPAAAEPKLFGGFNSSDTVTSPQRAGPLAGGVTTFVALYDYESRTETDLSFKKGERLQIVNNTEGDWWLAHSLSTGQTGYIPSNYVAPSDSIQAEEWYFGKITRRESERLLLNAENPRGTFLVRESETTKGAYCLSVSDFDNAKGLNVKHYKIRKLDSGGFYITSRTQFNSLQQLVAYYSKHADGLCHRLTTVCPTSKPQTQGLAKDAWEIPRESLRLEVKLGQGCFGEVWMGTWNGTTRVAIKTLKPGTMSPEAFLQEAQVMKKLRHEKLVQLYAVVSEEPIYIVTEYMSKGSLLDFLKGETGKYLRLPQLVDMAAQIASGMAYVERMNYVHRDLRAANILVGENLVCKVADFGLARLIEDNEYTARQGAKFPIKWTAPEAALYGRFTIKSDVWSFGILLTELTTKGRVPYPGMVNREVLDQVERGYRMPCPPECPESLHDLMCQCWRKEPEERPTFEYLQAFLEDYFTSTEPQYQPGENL

[11] = target: Ephrin type-A receptor 2 (Homo sapiens) (UniProt P29317); assay: Inhibition of EPHA2 (unknown origin) at 100 nM incubated for 1 hr in presence of ATP by ELISA analysis
[12] = system: OCI-Ly10; assay: Induction of apoptosis in human OCILY10 cells assessed as late apoptotic cells at 0.1 uM incubated for 24 hrs by Annexin V-FITC/PI staining based flow cytometry (reference value: 3.71 %); type: functional
[13] = system: OCI-Ly10; assay: Induction of apoptosis in human OCILY10 cells assessed as early apoptotic cells at 0.2 uM incubated for 48 hrs by Annexin V-FITC/PI staining based flow cytometry (reference value: 5.4 %); type: functional
[14] = system: OCI-Ly10; assay: Induction of apoptosis in human OCILY10 cells assessed as early apoptotic cells at 1 uM incubated for 48 hrs by Annexin V-FITC/PI staining based flow cytometry (reference value: 5.4 %); type: functional
[15] = system: OCI-Ly10; assay: Induction of apoptosis in human OCILY10 cells assessed as late apoptotic cells at 0.5 uM incubated for 48 hrs by Annexin V-FITC/PI staining based flow cytometry (reference value: 3.54 %); type: functional
[16] = system: OCI-Ly10; assay: Induction of apoptosis in human OCILY10 cells at 0.5 uM incubated for 48 hrs by Annexin V-FITC/PI staining based flow cytometry; type: functional
[17] = system: OCI-Ly10; assay: Induction of apoptosis in human OCILY10 cells assessed as upregulation of PARP cleavage at 0.1 to 1 uM incubated for 48 hrs by immunoblotting analysis; type: functional, cell-based; settings: dose 0.1-1 µM
[18] = system: OCI-Ly10; assay: Synergistic antiproliferative activity against human OCILY10 cells harboring MYD88 L265P assessed as inhibition of cell growth at 100 nM incubated for 72 hrs in presence of BTK inhibitor, ibrutinib at 1.6 nM by CCK-8 assay (reference value: 21.36 %); type: functional
[19] = system: OCI-Ly10; assay: Synergistic antiproliferative activity against human OCILY10 cells harboring MYD88 L265P assessed as inhibition of cell growth at 400 nM incubated for 72 hrs in presence of BTK inhibitor, ibrutinib at 3.1 nM by CCK-8 assay (reference value: 34.46 %); type: functional
[20] = system: OCI-Ly10; assay: Synergistic antiproliferative activity against human OCILY10 cells harboring MYD88 L265P assessed as inhibition of cell growth at 1600 nM incubated for 72 hrs in presence of BTK inhibitor, ibrutinib at 3.1 nM by CCK-8 assay (reference value: 64.69 %); type: functional
[21] = system: OCI-Ly10; assay: Synergistic antiproliferative activity against human OCILY10 cells harboring MYD88 L265P assessed as inhibition of cell growth at 100 nM incubated for 72 hrs in presence of BTK inhibitor, ibrutinib at 6.2 nM by CCK-8 assay (reference value: 21.36 %); type: functional
[22] = system: OCI-Ly10; assay: Synergistic antiproliferative activity against human OCILY10 cells harboring MYD88 L265P assessed as inhibition of cell growth at 200 nM incubated for 72 hrs in presence of BTK inhibitor, ibrutinib at 6.2 nM by CCK-8 assay (reference value: 26.07 %); type: functional
[23] = system: OCI-Ly10; assay: Synergistic antiproliferative activity against human OCILY10 cells harboring MYD88 L265P assessed as inhibition of cell growth at 400 nM incubated for 72 hrs in presence of BTK inhibitor, ibrutinib at 6.2 nM by CCK-8 assay (reference value: 34.46 %); type: functional
[24] = system: OCI-Ly10; assay: Synergistic antiproliferative activity against human OCILY10 cells harboring MYD88 L265P assessed as inhibition of cell growth at 100 nM incubated for 72 hrs in presence of BTK inhibitor, ibrutinib at 12.5 nM by CCK-8 assay (reference value: 21.36 %); type: functional
[25] = system: OCI-Ly10; assay: Synergistic antiproliferative activity against human OCILY10 cells harboring MYD88 L265P assessed as inhibition of cell growth at 800 nM incubated for 72 hrs in presence of BTK inhibitor, ibrutinib at 12.5 nM by CCK-8 assay (reference value: 54.76 %); type: functional
[26] = system: OCI-Ly10; assay: Synergistic antiproliferative activity against human OCILY10 cells harboring MYD88 L265P assessed as inhibition of cell growth at 100 nM incubated for 72 hrs in presence of BTK inhibitor, ibrutinib at 25 nM by CCK-8 assay (reference value: 21.36 %); type: functional
[27] = system: OCI-Ly10; assay: Synergistic antiproliferative activity against human OCILY10 cells harboring MYD88 L265P assessed as inhibition of cell growth at 200 nM incubated for 72 hrs in presence of BTK inhibitor, ibrutinib at 25 nM by CCK-8 assay (reference value: 26.07 %); type: functional
[28] = system: OCI-Ly10; assay: Induction of apoptosis in human OCILY10 cells harboring MYD88 L265P assessed as upregulation of PARP cleavage at 0.1 uM in presence of BTK inhibitor, ibrutinib by immunoblotting analysis; type: functional, cell-based

SMILES: Cn1cc(-c2cc3c(cc2NC(=O)c2coc(-c4ccnc(N)c4)n2)CC(C)(C)O3)cn1
- inhibition at 0.1 µM [1]: 21.8%
- IC50 [2]: 1.25 µM
- inhibition [3]: inactive
- inhibition [4]: inactive
- inhibition [5]: inactive
- inhibition [6]: inactive
- inhibition [7]: inactive
- inhibition [8]: inactive
- inhibition [9]: inactive
- inhibition [10]: inactive
- inhibition [11]: inactive
- Activity [12]: 7.94%
- Activity [13]: 21.2%
- Activity [14]: 54.4%
- Activity [15]: 26.8%
- Activity [16]: 67.2%
- Activity [17]: Active
- inhibition at 0.1 µM [18]: 23.7%
- inhibition at 0.4 µM [19]: 42.3%
- inhibition at 1.6 µM [20]: 77.3%
- inhibition at 0.1 µM [21]: 44.9%
- inhibition at 0.2 µM [22]: 53.8%
- inhibition at 0.4 µM [23]: 67.2%
- inhibition at 0.1 µM [24]: 62.1%
- inhibition at 0.8 µM [25]: 86.4%
- inhibition at 0.1 µM [26]: 72.2%
- inhibition at 0.2 µM [27]: 75.4%
- Activity [28]: Active
